Measured values reported in a melting point compilation (Tetko et al.; mined from patent text by program, amines drawn as free bases though some values may be those of a salt).
Residues, ends and D or L forms follow the SMILES beside them. *: point of attachment. Cbz = O=C(OCc1ccccc1)*; Boc = CC(C)(C)OC(=O)*

In the case of Cn1c(=O)c2cnc(-c3ccccc3)nc2n(C)c1=O, the melting point is reported as 279 to 281 °C.
For CCOCCOc1ncc2cc(-c3c(Cl)cccc3Cl)c(=N)n(C)c2n1, the melting point was 133 to 135 °C.
Work on COc1cc(N)cc(C)c1OCCCN1CCN(c2cccc3sccc23)CC1 yielded a melting point of 155 to 158 °C.
With CNC(=S)Nc1ccc2c(c1)C(=O)NC(=O)C2(C)C the melting point was 206 to 207 °C.
Compound CC(C)(C)OC(=O)NC(CCCCNC(=O)OCc1ccccc1)C(=O)N1CCCC1C(=O)NC(CCCNC(=N)N)C(=O)O (stereo not drawn) (Boc-Lys(Cbz)-Pro-Arg-OH; configuration not given here) has a melting point of 90 °C.
Work on CC(C)(C)OC(=O)NCC1CCc2cc(O)ccc2C1 (stereo unspecified) yielded a melting point of 114 °C.
CCc1cc2c(s1)-n1nnnc1CN=C2c1ccccc1Cl gave a melting point of 135 to 136 °C.
CC(C)Oc1ccc(Oc2ccc3c(c2)c(C(=O)O)c(CC(=O)O)n3-c2ccc(C(C)C)cc2)cc1 gave a melting point of 205 to 210 °C.
Work on Cc1cc(C(=O)Nc2ccc(OCC(C)(C)C)c(C#N)c2)nn1-c1ccc(F)cc1 yielded a melting point of 146 to 147 °C.
For Cc1cc(C)c2nc(NCCCN3CCOCC3)n(Cc3nc(C)ccc3O)c2c1, the melting point was 228 °C.
For Cn1ccnc1Sc1ccc(Nc2c(C#N)cnc3cc(/C=C/CCN4CCC(N5CCCC5)CC4)ccc23)cc1Cl, the melting point was 214 to 216 °C.
Compound Cc1nc(O)cc(C(F)(F)F)n1 has a melting point of 141 to 143 °C.
In the case of CCOC(=O)c1cn2c(n1)CN(C(=O)OCC)c1ccccc1-2, the melting point is reported as 151 to 153 °C.
O=C(Cl)c1ccc(OCc2ccccc2)c(OCc2ccccc2)c1 showed a melting point of 92.5 to 94.5 °C.
Work on OC(Cn1cncn1)(Cn1cnc(-c2ccc(F)cc2)n1)c1ccc(C(F)(F)F)cc1F (stereo unspecified) yielded a melting point of 96 to 100 °C.
Cc1c(C(N)=O)nnn1Cc1ccccc1Cl gave a melting point of 181 to 183 °C.
For COC(=O)[C@@H](NC(=O)[C@H](CC(C)C)NC(=O)[C@@H](NC(=O)OCc1ccccc1)C(C)C)[C@@H](C)O, the melting point was 217 to 218 °C.
Work on Cc1ccc(Nc2nnc(-c3ccc(SC(F)(F)F)cc3)s2)cc1Cl yielded a melting point of 215 to 216 °C.
Compound COc1cc(Nc2nccc(-c3c[nH]c4ccccc34)n2)cc(OC)c1OC has a melting point of 197 °C.
CS(=O)(=O)N1CCC(NC(=O)OCc2ccccc2)CC1 showed a melting point of 149 to 153 °C.
CCOc1cc(C=CC(C)=O)ccc1OC gave a melting point of 95 to 96 °C.
Work on C=CCCN1CCN(c2nc(C)c(C(=O)NCc3cccnc3)s2)C1=O yielded a melting point of 144 to 145 °C.
With CC1(c2ccccc2)Cc2cc(O)c(Cl)c(Cl)c2C1O (stereo unspecified) the melting point was 163 to 165 °C.
COc1ccccc1COc1ccc(-c2cc(O)c(SCCc3ccccc3)c(=O)o2)cc1 gave a melting point of 138 to 139 °C.
Compound COc1cc(-n2cc(F)c(F)c2)ccc1-n1cc(OC)c(=O)c(-c2ccnn2-c2ccccc2)n1 has a melting point of 206 to 207 °C.
In the case of COCCCNC(=O)c1cnn(C)c1C(=O)Nc1ccn2nc(-c3ccccc3)nc2c1, the melting point is reported as 191 to 193 °C.
For OCCCCc1c[nH]c2ccccc12, the melting point was 189 to 190 °C.
Compound CC(C)c1cc2c(cc1O)C(=O)CCC2 has a melting point of 149 to 150 °C.
In the case of CN(C(=S)c1ccccn1)c1cccc(F)c1, the melting point is reported as 100 to 103 °C.
In the case of CN1CC(CCCO)CC2(OCCO)c3cccc4[nH]cc(c34)CC12 (stereo unspecified), the melting point is reported as 212 to 215 °C.
Work on COc1ccc(-n2nc(S)nc2-c2ccccc2)cc1 yielded a melting point of 260 °C.
O=C(NS(=O)(=O)C=Cc1ccccc1)N1CCC(CCCc2ccc(O)cc2)CC1 showed a melting point of 132 to 135 °C.
Compound COc1cccc(CO)c1F has a melting point of 53 to 57 °C.
Work on CC1C(=O)N(c2ccc(S(C)(=O)=O)cc2)N=C1N (stereo unspecified) yielded a melting point of 239 to 240 °C.
Compound O=Cc1ccc(OC(F)F)c2oc3ccncc3c12 has a melting point of 215 to 217 °C.
Cc1oc(-c2ccccc2)nc1COc1ccc(CON=C(CCC(=O)O)c2ccncc2)cc1 gave a melting point of 161 to 162 °C.
For CC(C)(C)OC(=O)N1CCn2c(Cl)c(-c3cccc(C#N)c3)c(C(N)=O)c2C1, the melting point was 206 to 208 °C.
Cc1ccc(C(=O)CCCCC(=O)O)cc1 showed a melting point of 147 to 148 °C.
In the case of Cc1nnc(-c2ccc3occ(-c4ccc(N(C)C)cc4)c3c2)o1, the melting point is reported as 205 to 206 °C.
With COC(=O)Cc1cccc(OC)c1OCCCc1cn(-c2ccc(C(=O)O)nn2)nc1C(C)C the melting point was 146 to 147 °C.
Nc1ccc(N2CC(O)C2)nc1 gave a melting point of 148 to 150 °C.
O=C(Cc1ccccc1NS(=O)(=O)C(F)(F)F)N1CCOCC1 gave a melting point of 95.5 to 97 °C.
For O=C(NC1=NN(c2ccc(Cl)cc2)C(c2ccc(Cl)cc2)C1)C(F)(F)F (stereo unspecified), the melting point was 138 to 140 °C.
In the case of CN1CCN(c2ccnc3c(NC(=O)c4c(Cl)cccc4Cl)cc(C(F)(F)F)cc23)C1=O, the melting point is reported as greater than 285 °C.
For CCCCCCCCCCCCCCOCC(CCC(=O)N(C)C)(CCC(=O)N(C)C)COCCCCCCCCCCCCCC, the melting point was 47 to 49 °C.
In the case of Nc1c(OCC(F)(F)F)cc(O)c2c1C(=O)c1ccccc1C2=O, the melting point is reported as 266 to 268 °C.
For O=c1cc(C(F)(F)F)c2ccc(NCCc3ccccc3)nc2o1, the melting point was 104 to 106 °C.
O=C(O)CCc1cc2cc(Cl)ccc2n1S(=O)(=O)c1ccc2c(c1)OCO2 showed a melting point of 207 °C.
Work on Cc1cc(C(=O)O)c(O)cc1C(N)C(=O)O (stereo unspecified) yielded a melting point greater than 250 °C.
In the case of CCOc1cc2nc(CN(C)C)nc(Nc3cccc(-c4csc(C)n4)c3)c2cc1OCC, the melting point is reported as 170 to 172 °C.
Compound COc1ccc(Nc2nc(-c3ccccc3)c(C(=O)c3sc(Nc4ccc(OC)cc4)nc3-c3ccccc3)s2)cc1 has a melting point greater than 285 °C.
Work on Cc1cc(F)ccc1C1=C(c2ccc(S(C)(=O)=O)cc2)CCC1 yielded a melting point of 112 to 114 °C.
Compound N[C@H]1CCN(c2ccc3c(C(=O)NCCc4ccccc4Cl)c(Cl)ccc3n2)C1 has a melting point of 196 to 198 °C.
CN1C(=O)[C@H](NC(=O)CCc2ccc(Cl)cc2Cl)N=C(c2ccccc2N)c2cc(N)ccc21 gave a melting point of 188 to 189 °C.
In the case of CC1(C)CC(S(=O)(=O)Cc2cnccc2C(F)(F)F)=NO1, the melting point is reported as 77 to 80 °C.
For CCCCCCCC(=O)OCc1ccccc1-c1nc(-c2cccc(OC)c2)n[nH]1, the melting point was 61 °C.
With CNC(=O)[C@@H]1C[C@@H](OCC2CC2)CN1S(=O)(=O)c1ccc(Cl)c(CBr)c1Cl the melting point was 161 °C.
CCOC(=O)CCNC(=O)CNC(=O)c1csc(NC(=O)NCc2ccccc2)n1 showed a melting point of 187 °C.
With CS(=O)(=O)Nc1cc(NC(=N)c2ccccc2)cc(NC(=O)/C=C/c2ccccc2C(F)(F)F)c1 the melting point was 150 to 155 °C.
O=C(O)CCC(=O)N1CCN(c2cc3c(cc2F)c(=O)c(C(=O)O)c2sccn23)CC1 showed a melting point of 331 to 334 °C.
O=C(O)c1cn(-c2csnn2)c2cc(F)c(F)cc2c1=O gave a melting point of 239 to 244 °C.
In the case of CCCN(CCC)C(=O)CNc1nc(-c2ccccc2)nc(C)c1CC, the melting point is reported as 83 to 84 °C.
Cc1ncc2c(n1)-c1ccc(Cl)cc1C(c1ccccc1)=NC2 gave a melting point of 120 to 122 °C.
Work on CC1CC2C3CC(Cl)C4=CC(=O)C=CC4(C)C3(Cl)C(O)CC2(C)C1C(=O)CO (stereo unspecified) yielded a melting point of 230 °C.
Compound c1cc2c(Nc3ccc4[nH]ccc4c3)ncnc2cn1 has a melting point of 265 °C.
Work on CCCCCCCCCC(=O)OC(=C(OC(=O)CCCCCCCCC)c1ccccn1)c1ccccn1 yielded a melting point of 89 to 90 °C.
In the case of CC(C)(C)OC(=O)Nc1ccc(-c2cccc(F)c2F)cc1N, the melting point is reported as 78 °C.
Compound O=C(CCCCCNC(=O)CCc1ccco1)NO has a melting point of 127 to 128 °C.
In the case of CCC(CC)(CC(=O)Nc1ccc2ccc(OCc3ccc4cc(F)ccc4n3)cc2c1)C(=O)O, the melting point is reported as 191 to 196 °C.
Compound COc1ccc(S(=O)(=O)Nc2cccnc2Nc2ccc(OC(=O)C(C)(C)C)cc2)cc1 has a melting point of 188 to 189 °C.
CN(c1cc(OCCCS(C)(=O)=O)cc2cc(C3=NCC(CN4CCN(S(C)(=O)=O)CC4)S3)[nH]c12)S(=O)(=O)c1ccccn1 (stereo unspecified) gave a melting point of 151 to 153 °C.
Cc1ccc2c(=O)c(CS(C)(=O)=O)cn(C)c2c1 gave a melting point of 193 to 195 °C.
CCCCC(CC)COC(=O)C(C#N)=Cc1ccc(-c2nc3ccccc3o2)cc1 (stereo unspecified) gave a melting point of 84 to 85 °C.
Compound CN(C)c1ccc2c(n1)C(c1ccccc1Cl)=NCc1n[nH]c(=O)n1-2 has a melting point of 244 to 246 °C.
With CC1COC(Cn2nc[nH]c2=S)(c2ccc(Oc3ccc(Cl)cc3)cc2Cl)O1 (stereo unspecified) the melting point was 130 °C.
O=C(O)/C=C/n1cnc2ccc(O)cc2c1=O showed a melting point of 294 to 296 °C.
